The values that follow come from paper PMC10771590, “Pathway crosstalk between the central metabolic and heme biosynthetic pathways in Phanerochaete chrysosporium” (Applied Microbiology and Biotechnology, 2024).

Each structure is given as a SMILES string. Read-outs that look alike come from different tables or passages of the source.

Assay [1] has as its target T1, rPcCS (mitochondrial citrate synthase) (Phanerodontia chrysosporium, UniProt Q0EAA7).
T1 sequence (Q0EAA7 1-446): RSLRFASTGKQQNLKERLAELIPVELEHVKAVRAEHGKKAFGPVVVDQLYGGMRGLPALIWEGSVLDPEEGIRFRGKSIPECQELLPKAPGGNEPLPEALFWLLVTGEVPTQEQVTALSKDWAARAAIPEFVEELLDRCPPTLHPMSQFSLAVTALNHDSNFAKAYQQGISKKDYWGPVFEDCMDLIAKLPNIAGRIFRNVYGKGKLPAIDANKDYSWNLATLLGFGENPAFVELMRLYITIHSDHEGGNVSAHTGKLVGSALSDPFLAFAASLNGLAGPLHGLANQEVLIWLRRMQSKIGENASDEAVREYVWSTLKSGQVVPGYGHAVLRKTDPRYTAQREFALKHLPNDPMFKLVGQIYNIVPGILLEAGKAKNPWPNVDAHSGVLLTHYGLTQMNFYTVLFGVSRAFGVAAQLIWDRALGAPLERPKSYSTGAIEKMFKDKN
In words: CS assay (DTNB method) and steady-state kinetic analysis. The format is biochemical, Phanerochaete chrysosporium. As to conditions: for Ki: 0–2.5 μM hemin. The procedure: CS was assayed by the 5, 5′-dithiobis-2-nitrobenzoic acid (DTNB) method, as described previously (Srere et al. [1963]). […] CS catalyzes the reaction of OAA with AcCoA, generating citrate and CoA. Thus, reactions were monitored by the amount of released CoA, which was followed at 412 nm (ε 13 600 M^–1cm^–1) by the formation of 2-nitro-5-mercaptobenzoic acid, via the reaction of CoA with DTNB. Reactions were monitored for 1 min, and initial velocity was determined. […] Inhibition studies were carried out in the presence of 0–2.5 μM hemin as described above. Kinetic parameters were determined from Lineweaver–Burk plots, and Ki values were determined from the secondary plot of the slopes of the Lineweaver–Burk plots. Hemin and OAA solutions were prepared immediately prior to use.
(§1) Fig. 5 Inhibitory effect of hemin on PcCS reaction. […] Reaction mixtures contained 1.5 nM rPcCS, 40 mM Tris-HCl (pH 8.5), and 120 μM DTNB. Fixed substrate was added at 12 μM and variable substrate at 3–12 μM. […] Insets: secondary plots of each slope of Lineweaver–Burk plots against the concentration of hemin for determining inhibition constants.

In assay [2] the test system is P. chrysosporium. In words: Growth of P. chrysosporium with exogenously added hemin. It counts as cell-based, Phanerochaete chrysosporium. On the procedure: P. chrysosporium (ATCC 34541) was grown from conidial inocula at 37 °C in a stationary culture (20-ml medium in a 200-ml Erlenmeyer flask). The medium (pH 4.5) used in this study was a ligninolytic medium as previously described (Shimizu et al. [2005]; Kirk et al. [1978]), with 1% glucose as carbon source and 1.2 mM ammonium tartrate as nitrogen source.
Taking these observations together, a metabolic “pathway crosstalk” is proposed and summarized in Scheme 1. In P. chrysosporium, heme plays an important role as a prosthetic molecule for many cellular processes, in particular, ligninolytic enzymes. Upon addition of exogenous aromatic compounds, fungal cellular metabolism was dramatically shifted from basic energy metabolism to “defensive” or “productive” metabolism. Glucose uptake and consumption and NADPH and succinyl-CoA production were activated in response to exogenous aromatic compounds. Furthermore, the heme synthetic pathway was activated (Shimizu et al. [2005]). Immediate activation of the heme synthesis against aromatics is crucial for the fungus to produce aromatics-degrading enzymes. On the other hand, free heme is highly toxic to the cell. Thus, metabolic overflow of heme biosynthesis causes highly stressful conditions in the mitochondria. The TCA cycle, including CS, is located in the mitochondrial matrix space (Mcalister-Henn and Small [1997]). […]

Assay [3] concerns the target T2, rPcCS (Phanerodontia chrysosporium, UniProt Q0EAA7).
T2 sequence (Q0EAA7 1-446): T1 sequence (Q0EAA7 1-446)
In words: Heme-derived time-dependent inhibition of PcCS. The format is biochemical, Phanerochaete chrysosporium. As to conditions: 30-min preincubation of PcCS with hemin at 4 °C; read-out: half-maximal inhibitory concentration (IC50). The procedure:
Therefore, the data were expressed as relative values against the controls. When 5.7 μM hemin was used, citrate formed was determined by HPLC because of spectroscopic interference with the Soret absorption. All experiments were repeated at least three times, and standard deviations were within 5% in each plot.
as §1

For `C=CC1=C(C)c2cc3[nH]c(cc4nc(cc5[nH]c(cc1n2)c(C)c5CCC(=O)O)C(CCC(=O)O)=C4C)c(C)c3C=C.[Fe+3]` [hemin], the “inhibitory effect relative to reported inhibitors of other eukaryotic CSs” value in assay [1] (hemin on PcCS versus inhibition constants larger than 0.1 mM) is given as 10 times. Further, the “mode of inhibition for AcCoA” value in assay [1] (rPcCS, double-reciprocal plots) is listed as “competitive inhibitor”. For the same compound, the “mode of inhibition for OAA” value in assay [1] (rPcCS, double-reciprocal plots) is recorded as “non-competitive inhibitor”. Also, the Ki in assay [1] (read-out: Ki AcCoA, rPcCS, pH 8.5, AcCoA as variable substrate) worked out at 5.8 µM; in assay [1] (read-out: Ki OAA, rPcCS, pH 8.5, OAA as variable substrate), 8.7 µM. For the same compound, the “growth of P. chrysosporium” value in assay [2] (1.0 μM hemin added to culture medium in the dark (data not shown)) and in assay [2] (exogenous addition of hemin at sub-μM concentrations) was “completely shut down” throughout. In assay [3], the IC50 was 1 µM.

Usually Ki stands for a measure of affinity in units of concentration, obtained from inhibition or displacement.
